# Measurements published in PubChem BioAssay AID248 (DTP/NCI, 2004).
# Toxic doses and inconclusive results are not listed.
# System: L1210 leukemia ip in BDF1 mice, survival T/C
# Test: NCI In Vivo Anticancer Drug Screen. Data for tumor model L1210 Leukemia (intraperitoneal) in B6D2F1 (BDF1) mice
# Details: endpoint: mean survival time, higher = longer survival
# In short: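 Transplantable tumor model; survival measured in treated vs vehicle control mice. Value = treated/control.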
# [1] = dose: 100.0 mg/kg/injection, schedule: Q01DX009 (ip), vehicle: saline with Tween-80
# [2] = dose: 100.0 mg/kg/injection, schedule: Q04DX003 (ip), vehicle: saline with Tween-80
# [3] = dose: 200.0 mg/kg/injection, schedule: Q04DX003 (ip), vehicle: saline with Tween-80
# [4] = dose: 400.0 mg/kg/injection, schedule: Q04DX003 (ip), vehicle: saline with Tween-80
# [5] = dose: 100.0 mg/kg/injection, schedule: Q04DX002 (ip), vehicle: saline with Tween-80
# [6] = dose: 200.0 mg/kg/injection, schedule: Q04DX002 (ip), vehicle: saline with Tween-80
# [7] = dose: 400.0 mg/kg/injection, schedule: Q04DX002 (ip), vehicle: saline with Tween-80
structure (smiles),measurement,setting,value
CCOC(=O)CC(=O)c1cccc(S(=O)(=O)F)c1,T/C,[1],98 % of control
same,T/C,[2],104 % of control
same,T/C,"dose: 200.0 mg/kg/injection, schedule: Q01DX009 (ip), vehicle: saline with Tween-80",103 % of control
same,T/C,[3],98 % of control
same,T/C,"dose: 400.0 mg/kg/injection, schedule: Q01DX009 (ip), vehicle: saline with Tween-80",92 % of control
same,T/C,[4],102 % of control
CCCCCCCCCCCSCCCCCCCCCCC,T/C,[2],113 % of control
same,T/C,[3],94 % of control
same,T/C,[4],91 % of control
O=S(=O)(c1ccccc1)C(I)I,T/C,"dose: 10.0 mg/kg/injection, schedule: Q04DX002 (ip), vehicle: Klucel (hydroxypropylcellulose) (HPC)",96 % of control
same,T/C,"dose: 20.0 mg/kg/injection, schedule: Q04DX002 (ip), vehicle: Klucel (hydroxypropylcellulose) (HPC)",94 % of control
same,T/C,"dose: 40.0 mg/kg/injection, schedule: Q04DX002 (ip), vehicle: Klucel (hydroxypropylcellulose) (HPC)",100 % of control
CC1(C)C(=O)C=C(N2CCCCC2)c2ccccc21,T/C,[2],101 % of control
same,T/C,[3],98 % of control
same,T/C,[4],97 % of control
CC1(c2ccc3ccccc3c2)OCC2(CCCC2)CO1,T/C,"dose: 100.0 mg/kg/injection, schedule: Q04DX002 (ip), vehicle: gum acacia",117 % of control
same,T/C,"dose: 200.0 mg/kg/injection, schedule: Q04DX002 (ip), vehicle: gum acacia",110 % of control
same,T/C,"dose: 400.0 mg/kg/injection, schedule: Q04DX002 (ip), vehicle: gum acacia",103 % of control
O=C(C[n+]1ccccc1)N/N=C/c1ccccc1Cl,T/C,"dose: 25.0 mg/kg/injection, schedule: Q01DX009 (ip), vehicle: saline with Tween-80",98 % of control
same,T/C,"dose: 50.0 mg/kg/injection, schedule: Q01DX009 (ip), vehicle: saline with Tween-80",98 % of control
same,T/C,[1],100 % of control
CC(C)OC(=O)Nc1cccc(NC(=O)OCCCl)c1,T/C,[5],97 % of control
same,T/C,[6],101 % of control
same,T/C,[7],97 % of control
CC1=C(Cl)C(=O)C(C)=C(Cl)C1=O,T/C,"dose: 10.0 mg/kg/injection, schedule: Q01DX001 (ip), vehicle: saline",90 % of control
same,T/C,"dose: 20.0 mg/kg/injection, schedule: Q01DX001 (ip), vehicle: saline",92 % of control
same,T/C,"dose: 40.0 mg/kg/injection, schedule: Q01DX001 (ip), vehicle: saline",108 % of control
c1ccc2c(c1)OB(C1CCCC1)O2,T/C,"dose: 100.0 mg/kg/injection, schedule: Q04DX003 (ip), vehicle: Klucel (hydroxypropylcellulose) (HPC)",95 % of control
same,T/C,"dose: 200.0 mg/kg/injection, schedule: Q04DX003 (ip), vehicle: Klucel (hydroxypropylcellulose) (HPC)",93 % of control
same,T/C,"dose: 400.0 mg/kg/injection, schedule: Q04DX003 (ip), vehicle: Klucel (hydroxypropylcellulose) (HPC)",100 % of control
CCCCOP(=O)(NNP(=O)(OCCCC)OCCCC)OCCCC,T/C,[5],108 % of control
same,T/C,[6],116 % of control
same,T/C,[7],105 % of control
O=C(O)/C=C/c1nc2ccccc2c(=O)[nH]1,T/C,"dose: 50.0 mg/kg/injection, schedule: Q01DX009 (ip), vehicle: Klucel (hydroxypropylcellulose) (HPC)",114 % of control
same,T/C,"dose: 100.0 mg/kg/injection, schedule: Q01DX009 (ip), vehicle: Klucel (hydroxypropylcellulose) (HPC)",100 % of control
O=C(Nc1ccc(C2=NCCN2)cc1)c1cccc(C(=O)Nc2ccc(C3=NCCN3)cc2)c1[N+](=O)[O-],T/C,"dose: 1.88 mg/kg/injection, schedule: Q01DX Z (ip), vehicle: saline",100 % of control
same,T/C,"dose: 3.75 mg/kg/injection, schedule: Q01DX Z (ip), vehicle: saline",100 % of control
same,T/C,"dose: 7.5 mg/kg/injection, schedule: Q01DX Z (ip), vehicle: saline",100 % of control
same,T/C,"dose: 15.0 mg/kg/injection, schedule: Q01DX Z (ip), vehicle: saline",105 % of control
same,T/C,"dose: 30.0 mg/kg/injection, schedule: Q01DX Z (ip), vehicle: carboxymethylcellulose (CMC)",198 % of control
same,T/C,"dose: 30.0 mg/kg/injection, schedule: Q01DX Z (oral), vehicle: saline",103 % of control
same,T/C,"dose: 60.0 mg/kg/injection, schedule: Q01DX Z (ip), vehicle: carboxymethylcellulose (CMC)",117 % of control
same,T/C,"dose: 60.0 mg/kg/injection, schedule: Q01DX Z (oral), vehicle: saline",105 % of control
same,T/C,"dose: 120.0 mg/kg/injection, schedule: Q01DX Z (oral), vehicle: saline",107 % of control
same,T/C,"dose: 240.0 mg/kg/injection, schedule: Q01DX Z (oral), vehicle: saline",102 % of control
